What all share (type): in vivo
The test system of assay [1] is ryegrass, Italian (Italian ryegrass, Lolium multiflorum). Nature of the assay: Test A postemergence. The settings on record: Lolium multiflorum, post-emergence, 240 h, 125 g ai/ha, Postemergence; visual injury after approximately 10 d; 0 to 100 scale where 0 is no effect and 100 is complete control; read-out: Plant response rating, Ryegrass, Italian. The procedure, abridged:
(§1)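 Greenhouse, ~10 d after spray; visual injury vs untreated controls, 0 = no effect, 100 = complete control. Preemergence: directed soil spray over planted seeds. Postemergence: plants 2–10 cm, 1–2 leaf stage. Loam/sand blend. Compound in non-phytotoxic solvent with surfactant.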

The subject of assay [2] is Galium (catchweed bedstraw, Galium aparine). Briefly: Test A postemergence. As to conditions: Galium, post-emergence, 240 h, 125 g ai/ha, Postemergence; visual injury after approximately 10 d; 0 to 100 scale where 0 is no effect and 100 is complete control; read-out: Plant response rating, Galium. The method in brief:
as §1

For assay [3], the system named is wheat (Triticum aestivum). Nature of the assay: Test A postemergence. The settings on record: Triticum aestivum, post-emergence, 240 h, 125 g ai/ha, Postemergence; visual injury after approximately 10 d; 0 to 100 scale where 0 is no effect and 100 is complete control; read-out: Plant response rating, Wheat. The method in brief:
as §1

Assay [4] relates to barnyardgrass (Echinochloa crus-galli). Nature of the assay: Test A postemergence. The settings on record: Echinochloa crus-galli, post-emergence, 240 h, 125 g ai/ha, Postemergence; visual injury after approximately 10 d; 0 to 100 scale where 0 is no effect and 100 is complete control; read-out: Plant response rating, Barnyardgrass. The procedure, abridged: as §1
Assay [5] concerns Kochia (Kochia scoparia). Nature of the assay: Test A postemergence. The settings on record: Bassia scoparia, post-emergence, 240 h, 125 g ai/ha, Postemergence; visual injury after approximately 10 d; 0 to 100 scale where 0 is no effect and 100 is complete control; read-out: Plant response rating, Kochia. The procedure, abridged:
as §1

The subject of another assay is corn (Zea mays). Nature of the assay: Test A postemergence. The settings on record: Zea mays, post-emergence, 240 h, 125 g ai/ha, Postemergence; visual injury after approximately 10 d; 0 to 100 scale where 0 is no effect and 100 is complete control. The method in brief: as §1
The test system of assay [6] is pigweed (Amaranthus retroflexus). Nature of the assay: Test A postemergence. As to conditions: Amaranthus retroflexus, post-emergence, 240 h, 125 g ai/ha, Postemergence; visual injury after approximately 10 d; 0 to 100 scale where 0 is no effect and 100 is complete control; read-out: Plant response rating, Pigweed. The procedure, abridged: as §1
In assay [7] the test system is blackgrass (Alopecurus myosuroides). Nature of the assay: Test A postemergence. The settings on record: Alopecurus myosuroides, post-emergence, 240 h, 125 g ai/ha, Postemergence; visual injury after approximately 10 d; 0 to 100 scale where 0 is no effect and 100 is complete control; read-out: Plant response rating, Blackgrass. The method in brief:
as §1

Assay [8] concerns ragweed (common ragweed, Ambrosia elatior). Briefly: Test A postemergence. The settings on record: Ambrosia artemisiifolia, post-emergence, 240 h, 125 g ai/ha, Postemergence; visual injury after approximately 10 d; 0 to 100 scale where 0 is no effect and 100 is complete control; read-out: Plant response rating, Ragweed. The method in brief: as §1
Assay [9] has as its system giant foxtail (Setaria faberii). Nature of the assay: Test A postemergence. As to conditions: Setaria faberi, post-emergence, 240 h, 125 g ai/ha, Postemergence; visual injury after approximately 10 d; 0 to 100 scale where 0 is no effect and 100 is complete control; read-out: Plant response rating, Foxtail, Giant. The procedure, abridged:
as §1

Assay [10] concerns ryegrass, Italian (Italian ryegrass, Lolium multiflorum). Nature of the assay: Test A preemergence. As to conditions: Lolium multiflorum, pre-emergence, 240 h, 500 g ai/ha, preemergence; visual injury rating about 10 d after treatment, 0 to 100 scale (0 no effect, 100 complete control); read-out: Ryegrass, Italian plant response rating. The method in brief: as §1
In assay [11] the test system is barnyardgrass (Echinochloa crus-galli). Briefly: Test A preemergence. As to conditions: Echinochloa crus-galli, pre-emergence, 240 h, preemergence, read-out: Barnyardgrass plant response rating. The method in brief:
as §1

The subject of assay [12] is Kochia (Kochia scoparia). Briefly: Test A preemergence. The settings on record: Bassia scoparia, pre-emergence, 240 h, preemergence, read-out: Kochia plant response rating. The method in brief:
as §1

In assay [13] the test system is pigweed (Amaranthus retroflexus). Briefly: Test A preemergence. As to conditions: Amaranthus retroflexus, pre-emergence, 240 h, preemergence, read-out: Pigweed plant response rating.
Assay [14] concerns ragweed (common ragweed, Ambrosia elatior). Briefly: Test A preemergence. As to conditions: Ambrosia artemisiifolia, pre-emergence, 240 h, 500 g ai/ha, preemergence; visual injury rating about 10 d after treatment, 0 to 100 scale (0 no effect, 100 complete control); read-out: Ragweed plant response rating. The method in brief: as §1
Assay [15] relates to giant foxtail (Setaria faberii). Nature of the assay: Test A preemergence. As to conditions: Setaria faberi, pre-emergence, 240 h, preemergence, read-out: Foxtail, Giant plant response rating. The method in brief:
as §1

[16] abbreviates: 125 g ai/ha, 0 to 100 scale where 0 is no effect and 100 is complete control.
[17] abbreviates: 500 g ai/ha, visual injury rating about 10 d after treatment, 0 to 100 scale (0 no effect, 100 complete control).

This passage reports pest or weed control, plant injury and Corn plant response rating (crop injury, 0 = no effect, 100 = complete kill) results from patent US12077503B2, “Substituted cyclic amides and their use as herbicides” (FMC CORPORATION, priority 2015, dated 2024).

For `O=C1NC[C@H](c2cccc(C(F)(F)F)n2)[C@H]1C(=O)Nc1ccccc1F` [Compound 940], the pest or weed control at 125 g/ha in assay [1] was 0%; in assay [2], 0%; in assay [4], 10%; in the assay on Kochia (Kochia scoparia) [5], 0%; in [6], 0%; in [7] it was 0%. Besides, the pest or weed control at 125 g/ha in assay [8] was found to be 0%; in [9] it was 0%; in assay [11] (setting [16]) it was 30%; in the assay with Kochia (Kochia scoparia) [12] (setting [16]) it was 0%; in assay [13] (setting [16]), 0%; in assay [15] (setting [16]), 40%. Besides, the plant injury at 125 g/ha in assay [3] turned out to be 0%. In the assay on corn (Zea mays), the Corn plant response rating (crop injury, 0 = no effect, 100 = complete kill) at 125 g/ha turned out to be 0%. Also, the pest or weed control at 500 g/ha in [10] is 0%; in assay [11] (setting [17]) it was 70%; in the assay with Kochia (Kochia scoparia) [12] (setting [17]) it was 0%; in assay [13] (setting [17]), 0%; in assay [14], 0%; in assay [15] (setting [17]), 90%.
